Measured values taken from ChEMBL document CHEMBL1250441, “Antitumor agents 273. Design and synthesis of N-alkyl-thiocolchicinoids as potential antitumor agents” (Bioorg Med Chem Lett, 2010).
Converted amounts (≈) assume the structure as drawn.

How the values were obtained:
[1] = test system: A549; test: Cytotoxicity against human A549 cells after 2 days; format: functional; conditions: A549, 48 h, read-out: ED50 (the source's name)
[2] = test system: SK-BR-3; test: Cytotoxicity against human SKBR3 cells after 2 days; format: functional; conditions: SK-BR-3, 48 h, read-out: ED50 (the source's name)
[3] = Cytotoxicity against human KBVIN cells expressing p-glycoprotein after 2 days; format: functional; conditions: 48 h, read-out: ED50 (the source's name)
[4] = Solubility of the compound in water; format: physicochemical; conditions: buffer
[5] = test system: DU-145; test: Cytotoxicity against human DU145 cells after 2 days; format: functional; conditions: DU-145, 48 h, read-out: ED50 (the source's name)
[6] = test system: KB; test: Cytotoxicity against human KB cells after 2 days; format: functional; conditions: 48 h, read-out: ED50 (the source's name)
[7] = Inhibition of tubulin assembly
[8] = test system: HCT-8; test: Cytotoxicity against human HCT8 cells after 2 days; format: functional; conditions: HCT-8, 48 h, read-out: ED50 (the source's name)
[9] = Selectivity ratio of ED50 for human HCT8 cells to ED50 for human KBVIN cells; format: functional
[10] = test system: A549; test: Selectivity ratio of ED50 for human HCT8 cells to ED50 for human A549 cells; format: functional
[11] = test system: SK-BR-3; test: Selectivity ratio of ED50 for human SKBR3 cells to ED50 for human KBVIN cells; format: functional
[12] = test system: A549; test: Selectivity ratio of ED50 for human SKBR3 cells to ED50 for human A549 cells; format: functional
[13] = test system: SK-BR-3; test: Selectivity ratio of ED50 for human SKBR3 cells to ED50 for human KB cells; format: functional
[14] = test system: DU-145; test: Selectivity ratio of ED50 for human HCT8 cells to ED50 for human DU145 cells; format: functional
[15] = test system: SK-BR-3; test: Selectivity ratio of ED50 for human SKBR3 cells to ED50 for human DU145 cells; format: functional
[16] = test system: HCT-8; test: Selectivity ratio of ED50 for human HCT8 cells to ED50 for human KB cells; format: functional

Structure (SMILES) | EC50 [1] | EC50 [2] | EC50 [3] | solubility [4] | EC50 [5] | EC50 [6] | IC50 [7] | EC50 [8] | Ratio ED50 [9] | Ratio ED50 [10] | Ratio ED50 [11] | Ratio ED50 [12] | Ratio ED50 [13] | Ratio ED50 [14] | Ratio ED50 [15] | Ratio ED50 [16]
CN[C@H]1CCc2cc(OC)c(O)c(OC)c2-c2ccc(SC)c(=O)cc21.O=C(O)CCC(=O)O | 1.26 µg/mL | 0.39 µg/mL | 1.35 µg/mL | 95 mg/mL | 0.342 µg/mL | 0.35 µg/mL | 23 µM | > 1 µg/mL | – | – | – | – | – | – | – | –
COc1cc2c(c(OC)c1OC)-c1ccc(SC)c(=O)cc1[C@@H](N(C)S(=O)(=O)c1ccccc1[N+](=O)[O-])CC2 | 0.129 µg/mL (≈ 0.225 µM) | 0.0285 µg/mL (≈ 0.0498 µM) | 0.153 µg/mL (≈ 0.266 µM) | – | 0.0312 µg/mL (≈ 0.0545 µM) | 0.035 µg/mL (≈ 0.0611 µM) | 0.92 µM | 0.12 µg/mL (≈ 0.21 µM) | – | – | – | – | – | – | – | –
COc1cc2c(c(OC)c1OC)-c1ccc(OC)c(=O)cc1[C@@H](NC(C)=O)CC2 [COLCHICINE] | 0.0199 µg/mL (≈ 0.0498 µM) | 0.0027 µg/mL (≈ 0.00676 µM) | 0.158 µg/mL (≈ 0.395 µM) | – | 0.0027 µg/mL (≈ 0.00676 µM) | 0.0038 µg/mL (≈ 0.00951 µM) | – | 0.054 µg/mL (≈ 0.135 µM) | – | – | – | – | – | – | – | –
CCN[C@H]1CCc2cc(OC)c(OC)c(OC)c2-c2ccc(SC)c(=O)cc21 | 0.0193 µg/mL (≈ 0.0481 µM) | 0.0141 µg/mL (≈ 0.0351 µM) | 0.0146 µg/mL (≈ 0.0364 µM) | – | 0.0138 µg/mL (≈ 0.0344 µM) | 0.02 µg/mL (≈ 0.0498 µM) | 5.4 µM | 0.031 µg/mL (≈ 0.0772 µM) | – | – | – | – | – | – | – | –
CCN([C@H]1CCc2cc(OC)c(OC)c(OC)c2-c2ccc(SC)c(=O)cc21)S(=O)(=O)c1ccccc1[N+](=O)[O-] | 0.212 µg/mL (≈ 0.361 µM) | 0.148 µg/mL (≈ 0.253 µM) | 0.174 µg/mL (≈ 0.296 µM) | – | 0.163 µg/mL (≈ 0.278 µM) | 0.13 µg/mL (≈ 0.222 µM) | 4.2 µM | 0.52 µg/mL (≈ 0.886 µM) | – | – | – | – | – | – | – | –
COc1cc2c(c(OC)c1OC)-c1ccc(SC)c(=O)cc1[C@@H](NS(=O)(=O)c1ccccc1[N+](=O)[O-])CC2 | 0.0209 µg/mL (≈ 0.0374 µM) | 0.0126 µg/mL (≈ 0.0226 µM) | 0.112 µg/mL (≈ 0.2 µM) | – | 0.0129 µg/mL (≈ 0.0231 µM) | 0.01 µg/mL (≈ 0.0179 µM) | 1.1 µM | 0.027 µg/mL (≈ 0.0483 µM) | – | – | – | – | – | – | – | –
COc1cc2c(c(OC)c1OC)-c1ccc(SC)c(=O)cc1[C@@H](N(C)C)CC2.O=C(O)CCC(=O)O | 0.19 µg/mL | 0.0129 µg/mL | 0.125 µg/mL | 103 mg/mL | 0.124 µg/mL | 0.12 µg/mL | 3.6 µM | 0.022 µg/mL | 10 | 10 | 10 | 10 | 10 | 10 | 10 | 10
CCN(CC)[C@H]1CCc2cc(OC)c(OC)c(OC)c2-c2ccc(SC)c(=O)cc21.O=C(O)CCC(=O)O | 0.181 µg/mL | 0.136 µg/mL | 0.151 µg/mL | 107 mg/mL | 0.125 µg/mL | 0.063 µg/mL | 16 µM | 0.11 µg/mL | – | – | – | – | – | – | – | –
CN[C@H]1CCc2cc(OC)c(OP(=O)(O)O)c(OC)c2-c2ccc(SC)c(=O)cc21 | 0.533 µg/mL (≈ 1.18 µM) | 0.137 µg/mL (≈ 0.302 µM) | 1.71 µg/mL (≈ 3.76 µM) | 15 mg/mL (≈ 33100 µM) | 0.157 µg/mL (≈ 0.347 µM) | 0.25 µg/mL (≈ 0.551 µM) | > 40 µM | > 1 µg/mL | – | – | – | – | – | – | – | –
COc1cc2c(c(OC)c1O)-c1ccc(SC)c(=O)cc1[C@@H](N(C)S(=O)(=O)c1ccccc1[N+](=O)[O-])CC2 | 1.68 µg/mL (≈ 3.01 µM) | 1.01 µg/mL (≈ 1.81 µM) | 1.49 µg/mL (≈ 2.67 µM) | – | 1.15 µg/mL (≈ 2.06 µM) | 0.72 µg/mL (≈ 1.29 µM) | 3.6 µM | > 1 µg/mL | – | – | – | – | – | – | – | –
CN[C@H]1CCc2cc(OC)c(O)c(OC)c2-c2ccc(SC)c(=O)cc21 | 1.55 µg/mL (≈ 4.14 µM) | 0.487 µg/mL (≈ 1.31 µM) | 1.38 µg/mL (≈ 3.7 µM) | – | 0.505 µg/mL (≈ 1.35 µM) | 0.55 µg/mL (≈ 1.47 µM) | > 40 µM | – | – | – | – | – | – | – | – | –
CCCN([C@H]1CCc2cc(OC)c(OC)c(OC)c2-c2ccc(SC)c(=O)cc21)S(=O)(=O)c1ccccc1[N+](=O)[O-] | 1.63 µg/mL (≈ 2.72 µM) | 0.616 µg/mL (≈ 1.02 µM) | 1.36 µg/mL (≈ 2.27 µM) | – | 0.357 µg/mL (≈ 0.595 µM) | 0.96 µg/mL (≈ 1.6 µM) | > 40 µM | > 1 µg/mL | – | – | – | – | – | – | – | –
